Laboratory results reported in patent US10996215B2, “Methods for determining drug efficacy for the treatment of diffuse large B-cell lymphoma, multiple myeloma, and myeloid cancers” (CELGENE CORPORATION, priority 2013, dated 2021).

How the values were obtained:
Assay type in all cases: cell-based
IRF7, IFN response = assay: IFN response, Western blot of IRF7 in U2932 (ABC) cells
Method: U2932 (ABC) cells were cultured and cell-passaged long-term in Compound A as described in Section 6.10. Levels of Aiolos, IRF7, and β-actin (control) were assessed using Western blotting, essentially as described above in Section 6.8.

Aiolos = assay: Western blot of Aiolos in GCB and ABC cell lines, 24 or 72 hours; settings: ABC and GCB DLBCL cell lines
Method: Aiolos or β-actin (control) protein levels were analyzed by Western blotting, essentially as described in Section 6.8.

ABC-DLBCL cell line = assay: Tandem Mass Tag proteomics, lenalidomide vs Compound A; settings: 24 h
Description: Cells were harvested and proteins were fractionated using a basic pH reverse gradient method. Fractionated samples were labeled using a Tandem Mass Tag method.

ZFP91, Aiolos = assay: Western blot of ZFP91 and Aiolos in OCI-LY10 cells; settings: OCI-LY10, 6 hrs
Description: (§1) Cells were harvested with RIPA buffer, and proteins from cell lysates were separated by 10% sodium dodecyl sulfate polyacrylamide (SDS-PAGE) gel electrophoresis (Bio-Rad), and transferred to PVDF membranes (Invitrogen). Immunoblots were probed with antibodies recognizing Aiolos (9-9-7; Celgene), CK1α(Abcam), GSPT1 (Sigma), ZFP91 (LSBio) and β-actin (Li-Cor). Signals were detected with a Li-Cor Odyssey imager.
Immunoblots were probed with antibodies recognizing Aiolos (9-9-7; Celgene), GSPT1 (Sigma), ZFP91 (LSBio) and β-actin (Li-Cor). Signals were detected with a Li-Cor Odyssey imager.
as §1, with “OCI-LY10 cells treated with DMSO or various drugs for 6 hrs. Cells” for “Cells”, “buffer” for “buffer,”, “recognizing:” for “recognizing”
OCI-LY10 cells were then treated with DMSO or various drugs for 6 hrs. […] Cells were harvested with RIPA buffer and Proteins from cell lysates were separated by 10% sodium dodecyl sulfate polyacrylamide (SDS-PAGE) gel electrophoresis (Bio-Rad), and transferred to PVDF membranes (Invitrogen). Immunoblots were probed with antibodies recognizing: Aiolos (9-9-7; Celgene), ZFP91 (LSBio), ZNF198 (LSBio) and β-actin (Li-Cor). Signals were detected with a Li-Cor™ Odyssey imager.
OCI-LY10 cells stably transduced with shCRBN 11 were induced for 48 hrs with either 0 or 10 ng/ml of doxycycline. […] Where MLN4924 treatments were present, MLN4924 was pre-incubated for 1 hr prior to drug treatment. Cells were harvested with RIPA buffer and Proteins from cell lysates were separated by 10% sodium dodecyl sulfate polyacrylamide (SDS-PAGE) gel electrophoresis (Bio-Rad), and transferred to PVDF membranes (Invitrogen). Immunoblots were probed with antibodies recognizing: CRBN-65, Aiolos (9-9-7; Celgene), Ikaros (Millipore), ZFP91 (LSBio) and β-actin (Li-Cor). Signals were detected with a Li-Cor Odyssey imager.

HNT-34 = assay: 4 d BrdU cell assay / tritiated thymidine, sensitivity; settings: FIG. 22B
Method: (§2) Sensitivity to lenalidomide treatment in a panel of myeloid cancer cell lines was evaluated by tritiated thymidine and/or BrdU assays.

MDS-L = assay: as above; settings: FIG. 22B
Method: as §2

[1] = test system: TMD8 (ABC) or Karpas 422 (GCB) cells; assay: competition with lenalidomide for CRBN, 3H-thymidine proliferation; settings: TMD8 or Karpas 422; co-treatment with 10 μM lenalidomide; competition of binding to the CRBN complex
Aiolos, Ikaros, ZFP91 [2] = assay: Western blot in myeloma, lymphoma and primary B cells; settings: U266, DF15, RPMI8226, OCI-LY10, WSU-DLCL2, WSU-DLCL2 Compound A resistant, primary B cells; 8 hours
Method: Multiple myeloma cells (U266, DF15, RPMI8226), diffuse large B cell lymphoma cells (OCI-LY10, WSU-DLCL2, WSU-DLCL2 Compound A resistant), and primary B cells were treated with DMSO, […] or […] for 8 hours. Cells were harvested and were treated in cell lysis buffer to generate cell lysates. Proteins from cell lysate were separated by gel electrophoresis (10% SDS-PAGE) and transferred to nitrocellulose membranes. Immunoblots were then probed with antibodies recognizing Aiolos, CRBN, Ikaros, ZFP91 (LSBio), IRF4, IRF7, Myc, and β-actin (Li-Cor).

[3] = test system: DLBCL cell lines (GCB and ABC); assay: tritiated thymidine incorporation proliferation assay
Method: Cells were then cultured for 3 days at 37° C. Tritiated thymidine was applied to the cell culture for the final 6 hours and cells were then harvested onto filter plates. After the plates have dried, scintillation fluid was added to the plates and read on a Top-count reader.
The cells were then analyzed for proliferation using a ^3H-thymidine incorporation assay.
Proliferation was assessed through tritiated thymidine incorporation.

Aiolos, Ikaros, ZFP91 [4] = assay: CRBN dependence of ZFP91 reduction in U266 cells, Western blot; settings: 6 hour
Method: U266 cells were transduced with inducible shRNA constructs targeting CRBN or targeting luciferase as control. Cells were grown in the presence or in the absence of 10 ng/ml Doxycycline, and in the presence or in the absence of 1 μM pomalidomide. Cells were harvested and were treated in cell lysis buffer to generate cell lysates. Proteins from cell lysate were separated by gel electrophoresis and transferred to nitrocellulose membranes. Immunoblots were then probed with antibodies recognizing Aiolos, CRBN, Ikaros, ZFP91, IRF4, IFIT1, IFIT3, P-STAT1, and β-actin (Li-Cor).
Cells were harvested, and lysates were run on 10% SDS-PAGE and immunoblotted with the appropriate antibodies.
MG132 activates c-Jun N-terminal kinase (JNK1), which initiates apoptosis. […] MLN4924 is a NAE1 inhibitor that blocks the activity of Cullin Ring Ligases (CRLs), such as CRL4^CRBN. […] Cells were harvested and lysates were run on 10% SDS-PAGE, transferred to nitrocellulose and immunoblotted with the corresponding antibodies.

IFN pathway = assay: effect on IFN pathway (FIG. 13)
[5] = 3 days, tritiated thymidine incorporation

Compound: Cc1nc2cccc(N)c2c(=O)n1C1CCC(=O)NC1=O (stereo not drawn) [Compound A, 3-(5-amino-2-methyl-4-oxo-4H-quinazolin-3-yl)-piperidine-2,6-dione]
- IFN response gene expression (IRF7, IFN response; FIG. 10A): up-regulates
- IRF7 protein expression (IRF7, IFN response; U2932 (ABC), Western blot): upregulates
- Aiolos protein levels (Aiolos): decrease in a dose-dependent manner
- overall effect on protein abundance compared to lenalidomide (ABC-DLBCL cell line; 10 uM each, log2 ratios vs DMSO): generally stronger effect
- gradient of regression line, log2 ratios of lenalidomide and Compound A plotted against each other (ABC-DLBCL cell line; 10 uM each, r2=0.752, intercept 0.03): 1.45
- effect on CSNK1A1 protein (ABC-DLBCL cell line; ABC-DLBCL cell line, 10 uM, vs DMSO): does not appear to affect
- levels of ZFP91 and Aiolos (ZFP91, Aiolos; 100 mM thalidomide, 10 mM lenalidomide, 1 mM pomalidomide, 1 μM or 10 μM Compound A, 100 nM Compound B, FIG. 17A): reduced
- levels of ZFP91 and Aiolos (ZFP91, Aiolos; 1 or 10 μM lenalidomide, 0.1, 1 or 10 μM Compound A, FIG. 17B): reduced
- sensitivity of HNT-34 cells (HNT-34): only MDS-L cells were sensitive to Compound A
- sensitivity of MDS-L cells (MDS-L): sensitive
- anti-proliferative effects on co-treatment with lenalidomide [1]: blocks anti-proliferative effects of Compound A
- levels of Aiolos, Ikaros, and ZFP91 (Aiolos, Ikaros, ZFP91 [2]): reduced
- sensitivity of ABC DLBCL cell lines [3]: sensitive
- activity in some GCB DLBCL compared to lenalidomide (proliferation) [3, 5]: Differential activity
- potency in ABC DLBCL (proliferation) [3, 5]: more potent than lenalidomide
- destruction of Aiolos, Ikaros, and ZFP91 (CRBN dependent pathway) (Aiolos, Ikaros, ZFP91 [4]): induced
- IFIT1, IFIT3, DDX58, XAF1, IFIH1, and OAS3 protein expression (IFN pathway; FIG. 13A): upregulates
- DDX58, IFI27, IFIT1, IFIT3, DDX58, and XAF1 gene expression (IFN pathway; FIG. 13B): upregulates
- ISG15 and OAS3 gene expression (IFN pathway; FIG. 13C): upregulates
- IRF changes (IFN pathway; FIG. 13E): induces
- IFIT1 and IFIT3 protein expression (IFN pathway; FIG. 13F): upregulates
- IKKE protein level (IFN pathway; FIG. 13F): reduces
- TBK1 phosphorylation (TBK1-PO4) (IFN pathway; FIG. 13F): upregulates
- levels of STAT or phosphorylated STAT (IFN pathway; FIG. 13G): induces changes
